Data from patent US20250129074A1, “CHIMERIC COMPOUND FOR TARGETED DEGRADATION OF ANDROGEN RECEPTOR PROTEIN, PREPARATION METHOD THEREFOR, AND MEDICAL USE THEREOF” (Jiangsu Hengrui Pharmaceuticals Co., Ltd., priority 2021, published 2025).

Columns and labels:
[1] = test system: LNCap-FGC xenograft tumors; experiment: Pharmacodynamic testing: LNCap-FGC subcutaneous xenograft in castrated CB17-SCID mice; format: in vivo; details: i.g.; for Mean tumor volume D 21 / Number of remaining animals/group / TGI D 21: qd/21 d
Source text: To evaluate the inhibition of the growth of castration-resistant prostate cancer LNCap-FGC subcutaneous xenograft tumors in male CB17-SCID mice by compounds of the present disclosure.
Test animals: CB17-SCID male mice, purchased from Beijing Vital River Laboratory Animal Technology Co., Ltd. (certificate No. SCXK(Beijing)2016-0006; animal certification No. 110011220107542683), weighing about 20.54-26.72 g on purchase. Housing conditions: 5 animals/cage, a 12/12-hour light/dark cycle, a constant temperature of 23±1° C. with humidity at 50 to 60%, ad libitum access to food and water.
0.2 mL (10×10^6 cells+Matrigel) of LNCaP FGC cells (Matrigel was added, in a 1:1 ratio by volume) in the logarithmic growth phase was subcutaneously inoculated into the right upper limb of each mouse. When the mean tumor volume reached 77 mm^3, male mice with stable tumor growth were selected and subjected to orchiectomy followed by three days of analgesic care. When the mean tumor volume reached 172 mm^3, grouping and administration were started. The day of grouping was defined as DO, and intragastric administration was started and performed once a day for 21 days. The 21th day after administration was defined as D21 (Table 7). For tumor-bearing mice, the tumor volume was measured with a vernier caliper and the body weight was measured with a balance twice a week, and data were recorded.
All data were plotted and statistically analyzed using Excel and GraphPad Prism 8 software.
The calculation formula for tumor volume (V) was: V=½×a×b^2, where a and b represent length and width, respectively.
Relative tumor proliferation rate T/C(%)=(T-T0)/(C-C0)×100 (%), where T and C represent the tumor volumes of a treatment group and the control group at the end of the experiment; T0 and C0 represent the tumor volumes at the beginning of the experiment.

androgen receptor (AR) = target: T1, androgen receptor (AR) (Homo sapiens, UniProt P10275, T878A); experiment: Degradation activity on androgen receptor in LNCaP cells (AR ELISA); format: cell-based; details: 0.1 nM R1881, 24 hours; for DC50: read-out: LNCaP DC50; for Dmax: read-out: Max (maximum AR degradation rate)
T1 construct: host or cells: LNCaP human prostate cancer cells
T1 sequence (P10275 1-920 T878A): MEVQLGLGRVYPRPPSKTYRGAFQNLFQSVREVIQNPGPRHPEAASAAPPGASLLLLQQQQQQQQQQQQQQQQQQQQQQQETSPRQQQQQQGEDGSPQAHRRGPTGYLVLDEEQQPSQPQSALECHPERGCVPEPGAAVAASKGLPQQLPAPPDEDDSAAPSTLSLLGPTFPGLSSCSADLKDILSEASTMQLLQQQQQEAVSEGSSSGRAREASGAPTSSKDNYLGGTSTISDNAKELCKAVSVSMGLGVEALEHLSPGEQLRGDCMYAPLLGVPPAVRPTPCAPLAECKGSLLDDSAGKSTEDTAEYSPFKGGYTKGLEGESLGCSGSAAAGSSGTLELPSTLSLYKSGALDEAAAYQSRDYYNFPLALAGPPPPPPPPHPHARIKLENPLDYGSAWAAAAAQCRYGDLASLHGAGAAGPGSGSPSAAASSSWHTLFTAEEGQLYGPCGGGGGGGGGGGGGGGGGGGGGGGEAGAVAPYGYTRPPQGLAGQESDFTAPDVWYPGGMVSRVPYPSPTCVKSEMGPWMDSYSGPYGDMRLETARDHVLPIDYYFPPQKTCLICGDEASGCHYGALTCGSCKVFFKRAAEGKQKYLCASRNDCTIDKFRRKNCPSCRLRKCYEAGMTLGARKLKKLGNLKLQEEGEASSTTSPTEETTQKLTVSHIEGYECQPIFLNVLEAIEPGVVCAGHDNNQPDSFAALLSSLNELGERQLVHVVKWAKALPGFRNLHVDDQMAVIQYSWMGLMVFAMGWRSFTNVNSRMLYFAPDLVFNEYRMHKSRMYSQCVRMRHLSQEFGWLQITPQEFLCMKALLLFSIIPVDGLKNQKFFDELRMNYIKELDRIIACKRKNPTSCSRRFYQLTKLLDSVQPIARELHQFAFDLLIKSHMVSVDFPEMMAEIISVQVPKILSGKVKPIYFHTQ
Summary of the method: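 LNCaP cells were treated with compound, with a 0.5% DMSO blank control, for 24 h at 37 °C, 5% CO2. Cells were then lysed and the lysate clarified. AR protein level was read by ELISA.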

LNCaP cells = experiment: Inhibition of LNCaP proliferation (CellTiter-Glo); format: cell-based; details: Homo sapiens, 144 h, 0.1 nM R1881, six days; for Emax: read-out: Max (maximum proliferation inhibition rate)
Description: The plate was incubated in a 37° C., 5% CO2 cell incubator for three days. […] A blank control cell well containing 0.5% DMSO and a cell-free vehicle control well were set up. The plate was incubated in a 37° C., 5% CO2 cell incubator for six days.

[2] = Pharmacokinetic evaluation in SD rats; details: both sexes, rat, in vivo, po, i.g., 2.0 mg/kg; for Vd/F: read-out: Apparent distribution volume Vz/F; for AUC(0-t): read-out: Area under curve AUC0-t; for CL/F: read-out: Clearance rate CL/F; for half-life: read-out: Half-life T½ (converted); for Cmax: read-out: Plasma concentration Cmax
Description: SD rats were used as test animals.
32 SD rats, provided by Vital River Laboratory Animal Co., Ltd., with an equal number of males and females, were evenly divided into 8 groups. The animals were fasted overnight and then intragastrically dosed.
The dose administered was 2.0 mg/kg, and the volume was 10.0 mL/kg.
The procedure starting from the blood collection to the centrifugation was performed under ice-bath conditions. Access to food was given 2 hours after administration.

Compound | DC50 (androgen receptor (AR)) [µM] | Dmax (androgen receptor (AR)) [%] | IC50 (LNCaP cells) [µM] | Emax (LNCaP cells) [%] | Vd/F [2] [L/kg] | AUC(0-t) [2] [ng·h/mL] | CL/F [2] [mL/min/kg] | half-life [2] [h] | Cmax [2] [ng/mL] | other results
N#Cc1ccc(O[C@H]2CC[C@H](NC(=O)c3ccc(N4CCC(CN5CCN(c6cc7c(cc6F)C(=O)N(C6CCC(=O)NC6=O)C7=O)CC5)CC4)nn3)CC2)cc1Cl (stereo partly shown) [ARV-110, reference compound] |  |  |  |  |  |  |  |  |  | Mean tumor volume D 21 ([1]; 1 mpk): 789 mm^3; Number of remaining animals/group ([1]; 1 mpk): 8/8; TGI D 21 ([1]; 1 mpk): 57%; Mean tumor volume D 21 ([1]; 10 mpk): 293 mm^3; Number of remaining animals/group ([1]; 10 mpk): 8/8; TGI D 21 ([1]; 10 mpk): 92%
C[C@H]1CC2(CCN(c3ccc(C(=O)N4CCC(CN5CCN(c6cccc(NC7CCC(=O)NC7=O)c6)CC5)CC4)cc3)CC2)CN1c1ccc(C#N)c(Cl)c1 (stereo partly drawn) [Example 11, 2-Chloro-4-((3S)-8-(4-(4-((4-(3-((2,6-dioxopiperidin-3-yl)amino)phenyl)piperazin-1-yl)methyl)piperidine-1-carbonyl)phenyl)-3-methyl-2,8-diazaspiro[4.5]decan-2-yl)benzonitrile] | 0.0073 | 98 | 0.082 | 68 | 34.8 | 644 | 60.2 | 6.75 | 69.4 | 
C[C@H]1CC2(CCN(c3ccc(C(=O)N4CCC(CN5CCN(c6cccc(NC7CCC(=O)NC7=O)c6)CC5)CC4)nc3)CC2)CN1c1ccc(C#N)c(Cl)c1 (stereo partly drawn) [Example 12, 2-Chloro-4-((3S)-8-(6-(4-((4-(3-((2,6-dioxopiperidin-3-yl)amino)phenyl)piperazin-1-yl)methyl)piperidine-1-carbonyl)pyridin-3-yl)-3-methyl-2,8-diazaspiro[4.5]decan-2-yl)benzonitrile] | 0.0013 | 97 | 0.048 | 73 | 63.1 | 304 | 139 | 5.19 | 37.4 | 
C[C@H]1CC2(CCN(c3ccc(C(=O)N4CCC(CN5CCN(c6cccc(N[C@H]7CCC(=O)NC7=O)c6)CC5)CC4)cc3F)CC2)CN1c1ccc(C#N)c(Cl)c1 [Example 15-1, 2-Chloro-4-((S)-8-(4-(4-((4-(3-(((S)-2,6-dioxopiperidin-3-yl)amino)phenyl)piperazin-1-yl)methyl)piperidine-1-carbonyl)-2-fluorophenyl)-3-methyl-2,8-diazaspiro[4.5]decan-2-yl)benzonitrile] |  |  |  |  |  |  |  |  |  | effect on the body weight of the mice ([1]; 1.5, 5 and 15 mpk, once daily for 21 days): little effect; Mean tumor volume D 21 ([1]; 1.5 mpk): 255 mm^3; Number of remaining animals/group ([1]; 1.5 mpk): 8/8; TGI D 21 ([1]; 1.5 mpk): 94%; Mean tumor volume D 21 ([1]; 5 mpk): 188 mm^3; Number of remaining animals/group ([1]; 5 mpk): 8/8; TGI D 21 ([1]; 5 mpk): 99%; Mean tumor volume D 21 ([1]; 15 mpk): 117 mm^3; Number of remaining animals/group ([1]; 15 mpk): 8/8; TGI D 21 ([1]; 15 mpk): 104%
C[C@H]1CC2(CCN(c3ccc(C(=O)N4CCC(CN5CCN(c6cc(NC7CCC(=O)NC7=O)ccc6F)CC5)CC4)cc3)CC2)CN1c1ccc(C#N)c(Cl)c1 (stereo partly drawn) [Example 23, 2-Chloro-4-((3S)-8-(4-(4-((4-(5-((2,6-dioxopiperidin-3-yl)amino)-2-fluorophenyl)piperazin-1-yl)methyl)piperidine-1-carbonyl)phenyl)-3-methyl-2,8-diazaspiro[4.5]decan-2-yl)benzonitrile] | 0.0061 | 96 | 0.041 | 76 | 26.3 | 703 | 51.2 | 5.93 | 81.6 | 
C[C@H]1CC2(CCN(c3ccc(C(=O)N4CCC5(CC4)CC(N4CCN(c6ccc(N7CCC(=O)NC7=O)cc6)CC4)C5)cc3)CC2)CN1c1ccc(C#N)c(Cl)c1 [Example 28, (S)-2-Chloro-4-(8-(4-(2-(4-(4-(2,4-dioxotetrahydropyrimidin-1(2H)-yl)phenyl)piperazin-1-yl)-7-azaspiro[3.5]nonane-7-carbonyl)phenyl)-3-methyl-2,8-diazaspiro[4.5]decan-2-yl)benzonitrile] | 0.0058 | 97 | 0.017 | 61 | 66.6 | 315 | 108 | 7.17 | 25.5 | 
C[C@H]1CC2(CCN(c3ccc(C(=O)N4CCN(CC5CCN(c6cccc(NC7CCC(=O)NC7=O)c6)CC5)CC4)cc3)CC2)CN1c1ccc(C#N)c(Cl)c1 (stereo partly drawn) [Example 37, 2-Chloro-4-((3S)-8-(4-(4-((1-(3-((2,6-dioxopiperidin-3-yl)amino)phenyl)piperidin-4-yl)methyl)piperazine-1-carbonyl)phenyl)-3-methyl-2,8-diazaspiro[4.5]decan-2-yl)benzonitrile] | 0.0076 | 97 | 0.125 | 73 |  |  |  |  |  | 
C[C@H]1CC2(CCN(c3ccc(C(=O)N4CCC(CN5CCN(c6cccc(NC7CCC(=O)NC7=O)c6)CC5)CC4)cc3)CC2)CN1c1ccc(C#N)c(C(F)(F)F)c1 (stereo partly drawn) [Example 41, 4-((3S)-8-(4-(4-((4-(3-((2,6-Dioxopiperidin-3-yl)amino)phenyl)piperazin-1-yl)methyl)piperidine-1-carbonyl)phenyl)-3-methyl-2,8-diazaspiro[4.5]decan-2-yl)-2-(trifluoromethyl)benzonitrile] | 0.0171 | 96 | 0.098 | 56 |  |  |  |  |  | 
C[C@H]1CC2(CCN(c3ccc(C(=O)N4CCN(CC(=O)Nc5cccc(NC6CCC(=O)NC6=O)c5)CC4)cc3)CC2)CN1c1ccc(C#N)c(Cl)c1 (stereo partly drawn) [Example 42, 2-(4-(4-((S)-2-(3-Chloro-4-cyanophenyl)-3-methyl-2,8-diazaspiro[4.5]decan-8-yl)benzoyl)piperazin-1-yl)-N-(3-((2,6-dioxopiperidin-3-yl)amino)phenyl)acetamide] | 0.0042 | 90 | 0.039 | 50 |  |  |  |  |  | 
